Literature values in patent US12544371B2, “Methods and compositions for treating acute lung injury and acute respiratory distress syndrome” (CalciMedica, Inc., priority 2020, dated 2026).
“Also recorded” adds a separate entry of the source.

What was measured:
[1] = Gandhirajan et al. 2013; cited from earlier work
[2] = cited from earlier work
[3] = mice, cited from earlier work

Cc1nnsc1C(=O)Nc1ccc(-n2nc(C(F)(F)F)cc2C(F)(F)F)cc1 [BTP2, N-(4-(3,5-bis(trifluoromethyl)-1H-pyrazol-1-yl)phenyl)-4-methyl-1,2,3-thiadiazole-5-carboxamide]
infiltration of neutrophils into inflamed lung tissue [1]: reduced | inflammatory cytokines associated with lung inflammation [1]: down-regulated | vascular permeability in lungs [1]: decreased | endothelial lung dysfunction and lung inflammation ([2]; rat ventilator-induced lung injury): suppress | ventilator-induced lung injury ([2]; rats): attenuate | endothelial cell Ca2+ flux ([3]; delivered 2 hours after systemic endotoxin): striking reduction | measures of lung injury (endotoxin / lipopolysaccharide-induced) [3]: sharp decrease; also recorded: attenuate
